In PMC8825254, “Rational design of Striga hermonthica-specific seed germination inhibitors” (Plant Physiology, 2021):

Key:
ShHTL7 = molecular target: T1, ShHTL7 (Striga hermonthica, UniProt A0A0M3PNA2); test: DSF thermal stability of ShHTL7; type: binding; conditions: 0 to 100 µM; result in words
T1 sequence (A0A0M3PNA2 1-271): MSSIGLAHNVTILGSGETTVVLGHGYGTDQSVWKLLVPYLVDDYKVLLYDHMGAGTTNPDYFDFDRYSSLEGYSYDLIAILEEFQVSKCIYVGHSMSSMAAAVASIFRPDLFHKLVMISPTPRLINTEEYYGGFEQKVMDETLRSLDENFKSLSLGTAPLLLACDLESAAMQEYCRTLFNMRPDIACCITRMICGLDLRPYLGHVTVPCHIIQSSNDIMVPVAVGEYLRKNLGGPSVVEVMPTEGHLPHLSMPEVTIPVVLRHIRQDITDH
Experimental: About 10 µM of ShHTL7 purified protein was incubated with various concentrations of KK023-N1, Triton X-100, or KK094 (ranging from 0 to 100 µM) for 30 min. Then SYPRO Orange (reporter dye) was added to 1× final concentration. The reactions were carried out in 25 µL 1× PBs buffer. The assay was performed on CFX96 Real-Time System (BIO-RAD, Hercules, CA, USA) thermal cycler on 96-well quantitative polymerase chain reaction (qPCR) white plate, and the plate was sealed with adhesive qPCR plate seal to prevent samples evaporation ([Bai et al., 2019]). First, samples were heated to 25°C for 1 min followed by linear increase in the temperature ramp from 25°C to 99°C at a rate of 0.5°C/15 s. The change in the protein folding was monitored by the changes in the fluorescence of the reporter dye, and the data were analyzed by the machine software that plots the inflection point of fluorescence against temperature. Data were exported into Excel, and replicates were averaged to generate the graph.

Striga hermonthica = test: Striga emergence study in infested rice pots under greenhouse conditions; type: in vivo, Striga hermonthica on rice cv IAC165; conditions: for Striga emergence, average number: twice per week for 4 weeks, 10 weeks after rice planting, mock 26 per pot; for Change in Striga emergence compared to mock: Figure 10B; for Rice plant height, change: Striga-infested pots, Figure 10C
Experimental: Approximately 6,000 Striga seeds (20 mg) were weighed, mixed with sand/soil mixture (1:2 ratio), and put into a 3-L perforated plastic pot containing 0.5-L clean sand/soil mixture in the bottom. The pots were kept under greenhouse-controlled conditions at 30°C and kept moist with water for Striga preconditioning for 10 d. Formulated KK023-N1 and Triton X-100 were applied (at 100 mL per pot) at 10 and 100 µM concentration. Then three rice seedlings (cv IAC165, 10 d old) were planted in each pot after 24 h of inhibitor application. All the treatments were applied continuously twice per week for 4 weeks. Water with same amount of solvent (Cyclohexanone+Atlas-G) was used as a control. Pots were irrigated with 200 mL of Hoagland’s nutrient solution with low phosphate (4 µM) when needed. The rice plants were allowed to grow under greenhouse conditions for 10 weeks and the emerged Striga plants were counted from each pot. The height of rice plants was also measured to see impact of Striga infestation on host growth.

[1] = system: Rice WT (cv Nipponbare) seedlings; test: Rice micro tillering assay, WT, hydroponics; type: in vivo, rice (Oryza sativa); conditions: 10, 50 and 100 µM, 2 weeks, result in words
Experimental: Rice seeds of WT (cv Nipponbare) or SL-deficient mutant (d17), were surface sterilized with 2.5% NaClO and 0.05% of Tween-20 for 10 min, and rinsed 6 times with sterilized MilliQ water. About 30 seeds were placed on sterilized Magenta GA-7 plant culture box containing 0.5% MS medium with 0.4% agar and incubated at 30°C in dark. After 2 d, boxes were moved to a growth chamber and allowed to grow for another 5 d under fluorescent white light (130–180 μM m^−2 s^−1). Equally grown seedlings were transplanted in 50-mL black tubes filled with Hoagland nutrient solution (1 seedling/tube). Seedlings were treated with 10, 50, and 100 µM of each compound (KK023-N1, Triton X-100, and KK094). The compounds were applied twice a week for 2 weeks to test their effects on the growth of WT plants. SL-deficient seedlings (d17) were treated as WT but with the addition of 1 µM GR24. Number of tillers per plant, plant height, and dry biomass were measured at final harvest.

ShHTL5 = ShHTL5 (Striga hermonthica, UniProt A0A0M5I297); test: YLG hydrolysis competition assay with ShHTL5; type: biochemical
[2] = system: ShHTL7–ShMAX2-CTH interaction; test: GST pull-down of His-ShHTL7 by CTH of ShMAX2; type: binding, Striga hermonthica; conditions: 100 µM compound, 100 µM GR24; result in words
Experimental: Purified GST-CTH of ShMAX2 and GST were bound to the Glutathione Sepharose 4B Beads (GE healthcare). Purified 6× His-ShHTL7 was incubated with 100 μM KK023-N1 and Triton X-100 for 3 h, separately. Then apo ShHTL7 was added to the beads bound by GST-CTH of ShMAX2 in the presence and absence of 100 μM GR24. Similarly, ShHTL7 incubated with KK023-N1 and Triton X-100 were added to the beads bound by GST-CTH of ShMAX2 in the presence of 100 μM GR24. Apo ShHTL7 was added to the beads bound by GST only in the presence of 100 μM GR24 as a control. All the samples were washed with lysis buffer (50-mM Tris–HCl pH 8.0, 200 mM NaCl, 2 mM DTT) three times and then eluted with addition of 20 mM reduced glutathione. Thus, the eluted protein was subjected to Western blot using an antibody specific to 6XHis (Abcam, Cambridge, UK).

[3] = system: Rice seeds (cv Nipponbare); test: Rice germination and seedling growth in response to inhibitors; type: in vivo, rice (Oryza sativa); conditions: result in words
Experimental: Rice seeds (cv Nipponbare) were surface sterilized in 2.5% NaClO and 0.05% of Tween-20 for 10 min, and rinsed 6 times with sterilized MilliQ water. Seeds were imbibed in sterilized water at 30°C for 24 h in the dark. Next day, ∼3 mL of each inhibitor at different concentrations (3, 6, 12, 25, 50, and 100 μM) was added along with 0.5 Murashige and Skoog (MS) medium into 24-well plate, and one imbibed rice seed was placed in each well. The experiment was performed in six replications (one plant/well, n = 6) for each concentration. Nontreated rice seeds in 0.5-MS solution were included as a control. Seeds were allowed to germinate at 30°C in the dark for 48 h for monitoring seeds germination, and seeds were moved to a growth chamber with white fluorescent light (130–180 μM m^−2 s^−1) and12 h:12 h (Light/Dark (L/D)) period at 28°C. After 1 week, length of rice seedlings was measured and recorded, and pictures of seedlings were taken.

Sequence of ShHTL5 (A0A0M5I297 entry or part of it): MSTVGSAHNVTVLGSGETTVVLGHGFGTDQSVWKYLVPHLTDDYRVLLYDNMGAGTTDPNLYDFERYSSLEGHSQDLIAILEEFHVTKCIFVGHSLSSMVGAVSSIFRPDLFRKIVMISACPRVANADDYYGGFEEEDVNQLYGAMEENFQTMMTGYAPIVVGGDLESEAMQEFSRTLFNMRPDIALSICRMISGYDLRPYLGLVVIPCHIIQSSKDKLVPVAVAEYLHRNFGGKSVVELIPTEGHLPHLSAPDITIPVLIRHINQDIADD

COc1ccc(CCCc2cccc3c2CCN3C(=O)n2ccnn2)cc1 [KK023-N1] was tested, and the “Effect on SYPRO orange fluorescence peak of ShHTL7” value (ShHTL7) was “decreased the fluorescence of the SYPRO orange”, the “Effect on melting temperature of ShHTL7” value (ShHTL7) was “did not affect the melting temperature” and the “Striga emergence, average number” value (Striga hermonthica; 10 µM) was 20 Striga plants per pot. The “Change in Striga emergence compared to mock” value (Striga hermonthica; 10 µM) was -24%, the “Rice plant height, change” value (Striga hermonthica; 10 µM) was “+17%” and the “Striga emergence, average number” value (Striga hermonthica; 100 µM) was 16 Striga plants per pot. For the same compound, the “Change in Striga emergence compared to mock” value (Striga hermonthica; 100 µM) was 38%, the “Rice plant height, change” value (Striga hermonthica; 100 µM) was “+26%” and the “Effect on dry biomass of WT rice” value [1] was “except at 100 µM concentration that led to a reduction in biomass”. The “Effect on plant height of WT rice” value [1] was “did not observe any significant negative impact”, the “Effect on tillering of WT rice” value [1] was “did not observe any significant negative impact” and the inhibition at 50 µM (ShHTL5; 1 h, 50 µM compound, read-out: Reduction of ShHTL5 hydrolysis activity) was 20%. The IC50 (ShHTL5; read-out: IC50, ShHTL5-mediated YLG hydrolysis) was greater than 50 µM, the “Effect on YLG hydrolysis by ShHTL5” value (ShHTL5; result in words) was “did not influence the YLG hydrolysis” and the “Effect on GR24-dependent pull-down of His-ShHTL7 by GST-CTH of ShMAX2” value [2] was “could inhibit such interaction”. The “Effect on rice seedling plant height” value ([3]; all treatments (3-100 µM), 1 week) was “no effect on plant height was observed”, the “Effect on rice seed germination” value ([3]; up to 100 µM) was “did not detect any effect on seed germination” and the “Phenotype of treated rice seedlings versus control” value ([3]; up to 100 µM) was “did not show any significant phenotypic difference”.
